According to patent publication US11897918B2, “Compositions and methods to increase production” (priority 2014, dated 2024):

Tests used:
[1] = 0 and 60 hr, mass spec
[2] = tested on: H3N2 strain IVR-165; format: cell-based, influenza H3N2; details: concentrations as low as 0.05 or even 0.01 μM
[3] = tested on: A/Victoria/361/2011 (IVR-165) (high-expressing); assay: ambr15 mini-bioreactor and shake flask comparison, A strain; format: cell-based, influenza A H3N2; details: CDM and DM134 media, shake flasks and 15 ml bioreactors
[4] = tested on: B/Massachusetts/2/2012 (low-expressing); assay: ambr15 mini-bioreactor and shake flask comparison, B strain; format: cell-based, influenza B; details: CDM and DM134 media, shake flasks and 15 ml bioreactors
Description: The two lead compounds were further tested in the commercially available small-scale bioreactor system, ambr15™ (TAP Biosystems). The ambr15 system mimics the characteristics of classical bioreactors at microscale (10-15 ml), controlled by an automated workstation, which enables the rapid evaluation of multiple bioreactor cultures at microscale.
To test both lead compounds were tested side-by-side under controlled conditions, with two infection media formulations (DM134 and CDM) and two flu strains, A/Victoria/361/2011 (IVR-165) (high-expressing) and B/Massachusetts/2/2012 (low-expressing). The infection parameters used in the experiment were as follows: seeding density was 1.0×10^6 cells/ml or 2.5×10^6 cells/mL; pH was 7.1+/−0.02 (pH control by dual control with 0.05N NaOH and CO2 gas); DO was 50% (range 50-80%), controlled by O2 gas; agitation was 1000 rpm (local control); temperature was 34.0° C., locally monitored with bioreactor controller probe; vessel type was Spargeless, extended temperature vessels; and, aeration rate during run was 1 mL/min.
The quantification of HA was carried out by ELISA then was subsequently confirmed by HPLC. It was also shown that AFZ077 was able to boost HA yield in the DM134 medium with both low (1×10^6 per mL) and high (2.5×10^6 per mL) infection cell densities in this system. […] Overall, greater enhancement effect seen for low-expressing strains. […]

[5] = tested on: H3N2 strain; assay: Additional SAR studies, 10 ml viral cultures; format: cell-based, influenza H3N2; details: 0.05 uM
Description: Additional SAR studies were carried out to further identify candidate compounds to increase yields. 165 analogs tested at 0.05 uM in 10 ml viral cultures with a H3N2 strain. BYF589 enhanced yield over no-compound (DMSO) control by ˜2 fold. 14 of the 165 screened were as good as or better in enhancing HA yields than BYF589 at the concentration tested.

[6] = tested on: MDCK cells; assay: Cell viability, VI-CELL trypan blue exclusion; format: cell-based; details: monitored up to 60 hrs
Description: Cell viability assays were performed using MDCK cells treated with 1 uM sulphonamide or DMSO control. Cell viability was monitored over time up to 60 hrs using a VI-CELL machine (Beckman Coulter)(cell viability measured based on trypan blue exclusion). The sulphonamide analog used herein is not a marketed drug, therefore toxicity was conducted to identify cell viability over the course of incubation at the highest tested concentration of 10 μM and 60 hours of contact. […] At least 91% viability is detected in cells treated with sulphonamide.

[7] = tested on: HEK293 Freestyle cells; assay: Recombinant protein expression in HEK293 Freestyle cells; format: cell-based; details: 70 nM; proteins with a yield of about ≤4 mg/L
Description: To further evaluate general utility of the compounds identified in the HA yield studies, one of the lead compounds, BYF589, was tested on recombinant protein expression using heterologous cells. In particular, proteins that had been previously found to be difficult to express in HEK293 cells were included, which are referred to as “low yielders.” In a typical optimized system, low yielders are defined as having a yield of 5 mg/L or less. About 20 constructs of target proteins with typical yields of between 2-10 mg/L were selected for the experiments. They are secreted mammalian proteins, which are truncated versions of full length counterparts. Each construct (in a variant of the pRS5a vector) contained at least one tag (e.g., at least a C-terminal FlagHis tag—in addition, many are fused N- or C-terminally to mouse IgG1 Fc). Roughly equal numbers of each tag type were selected to reduce bias.
All targets with yields <1 mg/L or >10 mg/L were removed. Next, targets were sorted by tag type. Finally, if it looked like a particular molecular weight range was heavily represented, a few “duplicates” were culled. Then, to select samples, first 6-7 from each tag type were included without additional selection criteria. Resulting target list is reproduced below.
The BYF589 compound was dissolved in DMSO to finally provide a 70 μM working stock (1000×). […]

## O=C(O)C[C@H](O)C[C@H](O)/C=C/c1c(C2CC2)nc2ccccc2c1-c1ccc(F)cc1 [Compound G, (3R, 5S, 6E)-7-[2-cyclopropyl-4-(4-fluorophenyl)-quinolin-3-yl)-3,5-dihydroxyhept-6-enoic acid]
[1]
  loss of compound in media or media+MDCK cells: No loss of compounds was observed
[2]
  increase in HA yield: 3 fold
[3]
  HA yield enhancement, high-expressing A strain: but not a high-expressing H3N2 strain
[4]
  HA yield enhancement, low-expressing B strain: boosts HA yield
[5]
  yield enhancement over no-compound (DMSO) control: ~2 fold
[6]
  impact on cell viability: Neither sulphonamide nor pitavastatin had a negative impact on cell viability
[7]
  increase in recombinant protein yield: ≥ 1.5 fold
